Laboratory results: ChEMBL document CHEMBL1147548, “Didehydrofarnesyl diphosphate: an intrinsically fluorescent inhibitor of protein farnesyltransferase” (Bioorg Med Chem Lett, 2004)
Blank lines part the entries; values can stand above or below the molecule they belong to.

Experiments:
[1] = biological target: T1, Farnesyltransferase (Saccharomyces cerevisiae S288c, UniProt P22007+P29703); assay: (§1) Dissociation constant against yeast farnesyltransferase; format: protein-complex assay
T1 sequence (P29703 whole entry): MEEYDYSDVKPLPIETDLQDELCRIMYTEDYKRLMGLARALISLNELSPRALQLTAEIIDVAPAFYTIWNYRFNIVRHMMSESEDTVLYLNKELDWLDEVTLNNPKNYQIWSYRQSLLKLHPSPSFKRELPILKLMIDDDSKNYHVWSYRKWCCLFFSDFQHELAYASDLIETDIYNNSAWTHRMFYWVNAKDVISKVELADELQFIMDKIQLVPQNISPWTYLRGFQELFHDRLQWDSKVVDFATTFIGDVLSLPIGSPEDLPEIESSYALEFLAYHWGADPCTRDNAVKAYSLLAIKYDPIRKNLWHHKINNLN
T1 sequence (P22007 whole entry): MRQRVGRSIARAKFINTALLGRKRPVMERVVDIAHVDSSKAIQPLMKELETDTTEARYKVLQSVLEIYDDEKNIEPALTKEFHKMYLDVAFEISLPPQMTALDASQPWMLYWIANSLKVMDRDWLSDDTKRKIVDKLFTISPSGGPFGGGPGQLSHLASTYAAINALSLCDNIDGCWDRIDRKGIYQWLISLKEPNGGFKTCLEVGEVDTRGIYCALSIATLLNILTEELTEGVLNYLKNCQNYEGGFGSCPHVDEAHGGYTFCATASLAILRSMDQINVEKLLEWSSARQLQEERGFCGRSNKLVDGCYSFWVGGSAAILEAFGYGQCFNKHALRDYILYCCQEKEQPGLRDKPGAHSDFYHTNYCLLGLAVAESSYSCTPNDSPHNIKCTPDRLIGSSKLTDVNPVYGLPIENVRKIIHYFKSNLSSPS

[2] = substrate: CC(C)=CCC/C(C)=C/CC/C(C)=C/COP(=O)(O)OP(=O)(O)O; assay: as §1; format: protein-complex assay; details: Saccharomyces cerevisiae

Ki [1]: 8.8 µM
Molecule: CC(C)=C/C=C/C(C)=C/C=C/C(C)=C/COP(=O)(O)OP(=O)(O)O

B1: Farnesyltransferase (Saccharomyces cerevisiae S288c), P29703+P22007 (protein)
chain 1: T1 sequence (P29703 whole entry)
chain 2: T1 sequence (P22007 whole entry)
Km [2]: 27 µM
